Earlier results in paper PMC9410468 (Marine Drugs, 2022).

Test system: rats
Details: rat, in vivo; cited from earlier work
Description: In the mammalian brain, the medial habenula (MHB) expresses high nAChR levels. Recently, α3-containing nAChRs present in the medial habenula have attracted substantial attention because of their potential role in influencing nicotine addiction. In addition, recent studies have shown that the gene polymorphism of the α3 and β4 subunits in vivo are related to nicotine addiction and drug abuse. The α3β4 nAChR subtype is mainly located in the MHB, […] (IPN), and fasciculus retroflexus (FR) of the rat brain. In addition, it is also expres ...

AT-1001
effect on nicotine self-administration (in words): reduce nicotine self-administration in rats
